Measured values: ChEMBL document CHEMBL5291721, “A preclinical secondary pharmacology resource illuminates target-adverse drug reaction associations of marketed drugs” (Nat Commun, 2023)

What was measured:
[1] = target: T1, Type-1 angiotensin II receptor (Homo sapiens, UniProt P30556)
T1 sequence (P30556 whole entry): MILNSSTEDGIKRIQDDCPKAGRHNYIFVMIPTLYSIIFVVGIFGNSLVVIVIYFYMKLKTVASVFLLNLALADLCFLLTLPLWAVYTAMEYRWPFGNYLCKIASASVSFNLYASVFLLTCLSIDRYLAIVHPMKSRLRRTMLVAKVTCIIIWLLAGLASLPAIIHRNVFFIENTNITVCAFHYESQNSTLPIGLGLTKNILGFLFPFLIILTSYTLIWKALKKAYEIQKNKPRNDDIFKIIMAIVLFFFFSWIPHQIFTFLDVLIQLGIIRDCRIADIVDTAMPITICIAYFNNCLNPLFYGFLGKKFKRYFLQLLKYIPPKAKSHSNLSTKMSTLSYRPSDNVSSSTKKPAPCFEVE

B2 bradykinin receptor = target: T2, B2 bradykinin receptor (Homo sapiens, UniProt P30411)
T2 sequence (P30411 whole entry): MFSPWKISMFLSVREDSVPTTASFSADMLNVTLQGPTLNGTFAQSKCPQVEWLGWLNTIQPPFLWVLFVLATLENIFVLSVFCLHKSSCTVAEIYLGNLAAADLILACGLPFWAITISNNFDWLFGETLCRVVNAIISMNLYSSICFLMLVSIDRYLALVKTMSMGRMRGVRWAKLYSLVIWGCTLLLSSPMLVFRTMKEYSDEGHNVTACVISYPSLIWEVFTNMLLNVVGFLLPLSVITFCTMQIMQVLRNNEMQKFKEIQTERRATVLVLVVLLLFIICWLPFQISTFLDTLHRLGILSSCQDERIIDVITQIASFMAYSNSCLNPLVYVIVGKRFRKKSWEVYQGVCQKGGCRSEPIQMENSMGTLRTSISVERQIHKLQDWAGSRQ

[2] = target: Muscarinic acetylcholine receptor M3 (Homo sapiens, UniProt P20309)
Chain of Muscarinic acetylcholine receptor M3 (P20309 whole entry): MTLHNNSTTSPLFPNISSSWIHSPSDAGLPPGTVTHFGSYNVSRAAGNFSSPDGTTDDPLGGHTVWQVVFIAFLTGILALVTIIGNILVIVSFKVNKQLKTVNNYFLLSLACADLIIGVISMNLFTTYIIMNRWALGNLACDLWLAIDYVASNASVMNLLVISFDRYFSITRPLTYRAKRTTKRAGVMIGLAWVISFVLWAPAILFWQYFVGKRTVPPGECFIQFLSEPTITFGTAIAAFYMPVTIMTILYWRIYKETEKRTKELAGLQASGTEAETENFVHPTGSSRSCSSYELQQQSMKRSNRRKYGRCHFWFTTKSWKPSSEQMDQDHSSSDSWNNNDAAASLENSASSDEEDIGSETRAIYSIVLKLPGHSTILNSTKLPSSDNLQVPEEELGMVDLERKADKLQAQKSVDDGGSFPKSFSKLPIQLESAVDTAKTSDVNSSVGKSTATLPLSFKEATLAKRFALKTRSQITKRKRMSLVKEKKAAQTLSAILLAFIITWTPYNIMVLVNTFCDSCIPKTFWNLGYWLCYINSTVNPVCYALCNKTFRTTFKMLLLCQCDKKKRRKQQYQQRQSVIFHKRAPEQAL

Glucocorticoid receptor = target: T3, Glucocorticoid receptor (Homo sapiens, UniProt P04150)
T3 sequence (P04150 whole entry): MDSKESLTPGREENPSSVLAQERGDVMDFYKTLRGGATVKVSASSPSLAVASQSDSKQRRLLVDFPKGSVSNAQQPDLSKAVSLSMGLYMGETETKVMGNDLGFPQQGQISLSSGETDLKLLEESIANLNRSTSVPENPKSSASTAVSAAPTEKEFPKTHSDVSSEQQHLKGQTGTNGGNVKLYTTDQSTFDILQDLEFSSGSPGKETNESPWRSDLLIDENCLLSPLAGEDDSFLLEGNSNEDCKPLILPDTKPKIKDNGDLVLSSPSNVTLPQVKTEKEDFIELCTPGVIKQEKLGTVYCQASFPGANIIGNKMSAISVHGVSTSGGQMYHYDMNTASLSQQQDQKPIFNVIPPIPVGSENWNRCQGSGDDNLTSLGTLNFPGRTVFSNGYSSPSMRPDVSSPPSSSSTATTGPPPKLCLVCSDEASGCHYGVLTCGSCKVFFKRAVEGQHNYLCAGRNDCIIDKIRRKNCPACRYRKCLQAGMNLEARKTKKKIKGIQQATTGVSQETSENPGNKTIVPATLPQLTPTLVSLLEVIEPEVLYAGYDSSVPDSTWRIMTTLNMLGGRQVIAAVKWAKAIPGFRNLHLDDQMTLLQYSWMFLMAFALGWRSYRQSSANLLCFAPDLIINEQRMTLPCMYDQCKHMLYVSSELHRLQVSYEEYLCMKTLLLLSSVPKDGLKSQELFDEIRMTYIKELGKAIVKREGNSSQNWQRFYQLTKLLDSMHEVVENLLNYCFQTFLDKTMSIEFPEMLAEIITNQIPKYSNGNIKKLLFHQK

[3] = target: 3',5'-cyclic-AMP phosphodiesterase 4D (Homo sapiens, UniProt Q08499); type: functional
Chain of 3',5'-cyclic-AMP phosphodiesterase 4D (Q08499 whole entry): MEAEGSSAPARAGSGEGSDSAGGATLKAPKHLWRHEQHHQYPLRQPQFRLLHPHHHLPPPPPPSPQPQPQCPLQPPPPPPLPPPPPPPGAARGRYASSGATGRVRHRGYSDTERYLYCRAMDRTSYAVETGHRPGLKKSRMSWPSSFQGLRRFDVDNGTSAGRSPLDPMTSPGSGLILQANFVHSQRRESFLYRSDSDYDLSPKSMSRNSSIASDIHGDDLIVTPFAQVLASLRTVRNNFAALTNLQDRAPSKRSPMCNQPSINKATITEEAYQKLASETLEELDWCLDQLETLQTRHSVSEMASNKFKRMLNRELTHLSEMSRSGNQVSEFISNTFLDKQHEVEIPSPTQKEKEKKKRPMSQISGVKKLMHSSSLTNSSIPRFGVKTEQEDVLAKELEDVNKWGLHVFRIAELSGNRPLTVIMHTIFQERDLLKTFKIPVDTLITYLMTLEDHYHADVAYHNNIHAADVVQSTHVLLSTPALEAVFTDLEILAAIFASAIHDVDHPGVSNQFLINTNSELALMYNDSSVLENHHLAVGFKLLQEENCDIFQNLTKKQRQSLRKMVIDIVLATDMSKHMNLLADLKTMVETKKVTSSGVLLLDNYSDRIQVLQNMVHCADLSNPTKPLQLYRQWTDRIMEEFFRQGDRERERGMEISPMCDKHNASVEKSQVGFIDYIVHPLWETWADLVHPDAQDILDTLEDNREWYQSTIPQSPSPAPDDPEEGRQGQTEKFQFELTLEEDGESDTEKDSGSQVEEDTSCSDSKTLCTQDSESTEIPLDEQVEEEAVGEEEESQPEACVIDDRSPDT

[4] = target: T4, 5-hydroxytryptamine receptor 2A (Homo sapiens, UniProt P28223); type: functional, cell-based
T4 sequence (P28223 whole entry): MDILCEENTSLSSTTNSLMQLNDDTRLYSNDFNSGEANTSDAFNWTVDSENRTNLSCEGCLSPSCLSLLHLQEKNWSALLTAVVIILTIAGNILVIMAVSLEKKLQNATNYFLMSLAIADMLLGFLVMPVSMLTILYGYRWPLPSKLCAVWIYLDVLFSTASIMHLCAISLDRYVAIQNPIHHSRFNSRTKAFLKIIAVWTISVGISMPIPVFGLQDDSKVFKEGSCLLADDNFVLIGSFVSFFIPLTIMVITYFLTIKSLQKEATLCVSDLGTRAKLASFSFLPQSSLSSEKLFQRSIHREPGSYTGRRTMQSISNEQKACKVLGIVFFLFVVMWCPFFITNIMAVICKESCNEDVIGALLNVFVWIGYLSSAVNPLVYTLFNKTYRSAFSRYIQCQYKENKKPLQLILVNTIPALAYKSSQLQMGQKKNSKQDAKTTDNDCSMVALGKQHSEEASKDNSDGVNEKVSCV

[5] = target: T5, Amine oxidase [flavin-containing] A (Homo sapiens, UniProt P21397); type: functional
T5 sequence (P21397 whole entry): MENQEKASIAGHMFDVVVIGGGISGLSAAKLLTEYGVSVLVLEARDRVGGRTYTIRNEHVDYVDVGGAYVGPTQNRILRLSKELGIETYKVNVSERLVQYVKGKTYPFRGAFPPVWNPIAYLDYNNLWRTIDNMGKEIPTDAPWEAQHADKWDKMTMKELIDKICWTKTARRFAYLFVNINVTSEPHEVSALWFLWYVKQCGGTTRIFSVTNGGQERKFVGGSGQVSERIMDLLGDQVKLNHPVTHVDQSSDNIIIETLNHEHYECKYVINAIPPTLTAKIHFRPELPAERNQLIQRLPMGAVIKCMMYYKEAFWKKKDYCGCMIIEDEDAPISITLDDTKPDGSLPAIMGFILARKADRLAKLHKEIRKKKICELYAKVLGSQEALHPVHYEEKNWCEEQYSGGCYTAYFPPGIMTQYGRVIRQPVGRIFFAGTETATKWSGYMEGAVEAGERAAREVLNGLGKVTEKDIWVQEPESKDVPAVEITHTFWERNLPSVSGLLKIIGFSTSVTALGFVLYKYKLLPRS

[6] = target: Sodium-dependent dopamine transporter (Homo sapiens, UniProt Q01959)
Chain of Sodium-dependent dopamine transporter (Q01959 whole entry): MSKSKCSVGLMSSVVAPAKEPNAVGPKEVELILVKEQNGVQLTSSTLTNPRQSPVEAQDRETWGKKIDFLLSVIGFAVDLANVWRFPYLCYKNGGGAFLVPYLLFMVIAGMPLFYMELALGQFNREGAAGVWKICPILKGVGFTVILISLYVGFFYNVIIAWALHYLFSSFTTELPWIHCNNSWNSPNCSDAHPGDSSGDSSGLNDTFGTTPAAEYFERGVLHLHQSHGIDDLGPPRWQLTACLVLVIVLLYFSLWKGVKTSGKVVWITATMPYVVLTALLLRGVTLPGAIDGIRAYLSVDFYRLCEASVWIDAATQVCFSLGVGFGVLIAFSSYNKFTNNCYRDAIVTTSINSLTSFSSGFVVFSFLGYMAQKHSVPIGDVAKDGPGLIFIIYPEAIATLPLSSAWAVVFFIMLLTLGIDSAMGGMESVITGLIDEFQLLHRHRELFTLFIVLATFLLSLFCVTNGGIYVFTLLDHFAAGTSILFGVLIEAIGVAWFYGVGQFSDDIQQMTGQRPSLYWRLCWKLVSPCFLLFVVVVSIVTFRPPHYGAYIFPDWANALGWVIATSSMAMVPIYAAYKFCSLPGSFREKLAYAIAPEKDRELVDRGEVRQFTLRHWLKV

[7] = target: T4, 5-hydroxytryptamine receptor 2A; type: functional, cell-based; remark: listed apart in the source
[8] = target: Beta-2 adrenergic receptor (Homo sapiens, UniProt P07550); type: functional, cell-based
Chain of Beta-2 adrenergic receptor (P07550 whole entry): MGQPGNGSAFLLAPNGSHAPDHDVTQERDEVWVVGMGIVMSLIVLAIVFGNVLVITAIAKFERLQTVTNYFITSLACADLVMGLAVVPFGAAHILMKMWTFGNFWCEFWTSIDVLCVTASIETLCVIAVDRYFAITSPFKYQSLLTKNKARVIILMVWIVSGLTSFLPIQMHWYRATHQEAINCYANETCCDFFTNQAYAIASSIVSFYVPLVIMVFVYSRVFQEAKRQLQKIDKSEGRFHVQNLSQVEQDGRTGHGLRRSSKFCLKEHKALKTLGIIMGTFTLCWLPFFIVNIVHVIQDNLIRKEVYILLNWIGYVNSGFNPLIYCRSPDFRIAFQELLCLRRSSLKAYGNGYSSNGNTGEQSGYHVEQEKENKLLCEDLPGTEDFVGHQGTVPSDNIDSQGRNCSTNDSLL

Mu-type opioid receptor [9] = target: T6, Mu-type opioid receptor (Homo sapiens, UniProt P35372); assay: biochemical; type: functional
T6 sequence (P35372 whole entry): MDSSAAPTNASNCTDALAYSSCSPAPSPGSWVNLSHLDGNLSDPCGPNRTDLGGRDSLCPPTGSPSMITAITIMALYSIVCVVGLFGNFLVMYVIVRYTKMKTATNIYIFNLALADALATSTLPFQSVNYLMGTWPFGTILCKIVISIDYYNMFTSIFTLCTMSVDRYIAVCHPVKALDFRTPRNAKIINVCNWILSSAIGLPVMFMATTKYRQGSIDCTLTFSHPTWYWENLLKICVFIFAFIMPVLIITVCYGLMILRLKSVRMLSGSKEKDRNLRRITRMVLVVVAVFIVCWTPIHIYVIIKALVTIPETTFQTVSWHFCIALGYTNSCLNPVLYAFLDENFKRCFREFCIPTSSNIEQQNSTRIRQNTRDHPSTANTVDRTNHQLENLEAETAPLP

Histamine H1 receptor = Histamine H1 receptor (Homo sapiens, UniProt P35367)
Chain of Histamine H1 receptor (P35367 whole entry): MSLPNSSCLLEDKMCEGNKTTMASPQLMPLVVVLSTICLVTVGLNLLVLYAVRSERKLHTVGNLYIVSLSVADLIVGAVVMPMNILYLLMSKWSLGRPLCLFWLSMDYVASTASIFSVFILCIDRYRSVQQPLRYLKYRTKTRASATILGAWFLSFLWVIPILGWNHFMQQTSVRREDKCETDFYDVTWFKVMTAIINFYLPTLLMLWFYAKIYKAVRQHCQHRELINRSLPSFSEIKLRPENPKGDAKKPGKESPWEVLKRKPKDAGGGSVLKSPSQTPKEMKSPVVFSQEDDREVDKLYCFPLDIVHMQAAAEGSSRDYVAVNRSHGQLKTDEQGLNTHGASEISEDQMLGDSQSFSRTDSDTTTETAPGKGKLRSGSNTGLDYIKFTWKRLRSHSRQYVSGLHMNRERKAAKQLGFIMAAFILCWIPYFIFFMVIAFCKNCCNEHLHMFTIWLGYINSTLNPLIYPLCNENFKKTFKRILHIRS

Cannabinoid receptor 1 = Cannabinoid receptor 1 (Homo sapiens, UniProt P21554)
Chain of Cannabinoid receptor 1 (P21554 whole entry): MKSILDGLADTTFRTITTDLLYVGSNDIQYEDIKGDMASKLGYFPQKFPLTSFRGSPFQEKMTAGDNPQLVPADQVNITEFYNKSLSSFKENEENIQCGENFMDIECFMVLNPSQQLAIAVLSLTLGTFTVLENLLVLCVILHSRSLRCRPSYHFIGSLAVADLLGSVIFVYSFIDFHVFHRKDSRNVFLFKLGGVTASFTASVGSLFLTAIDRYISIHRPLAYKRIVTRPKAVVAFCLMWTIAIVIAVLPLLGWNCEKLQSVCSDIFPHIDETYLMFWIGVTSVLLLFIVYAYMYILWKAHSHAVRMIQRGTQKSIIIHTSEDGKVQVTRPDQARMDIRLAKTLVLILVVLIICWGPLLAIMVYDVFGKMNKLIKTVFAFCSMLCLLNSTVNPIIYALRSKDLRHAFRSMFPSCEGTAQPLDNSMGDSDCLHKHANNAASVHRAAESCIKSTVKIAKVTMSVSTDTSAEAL

Mu-type opioid receptor [10] = target: T6, Mu-type opioid receptor
Also: assay procedure not described here.

SMILES	AC50 [1] [µM]	AC50 (B2 bradykinin receptor) [µM]	AC50 [2] [µM]	AC50 (Glucocorticoid receptor) [µM]	AC50 [3] [µM]	AC50 [4] [µM]	AC50 [5] [µM]	AC50 [6] [µM]	AC50 [7] [µM]	AC50 [8] [µM]	AC50 (Mu-type opioid receptor [9]) [µM]	AC50 (Histamine H1 receptor) [µM]	AC50 (Cannabinoid receptor 1) [µM]	AC50 (Mu-type opioid receptor [10]) [µM]
CN1CCCN=C1/C=C/c1cccc(O)c1 [OXANTEL]	> 30	> 30	> 30	> 30	17	> 30	21	> 30	> 30	> 30	> 30	–	–	–
COC(=O)c1ccc2c(c1)NC(=O)/C2=C(\Nc1ccc(N(C)C(=O)CN2CCN(C)CC2)cc1)c1ccccc1 [NINTEDANIB]	> 30	> 10	> 30	> 30	> 30	> 30	> 30	> 30	> 30	> 30	> 30	> 30	–	–
O=C(O)c1nn(Cc2ccc(Cl)cc2Cl)c2ccccc12 [LONIDAMINE]	> 30	> 30	> 30	> 30	> 30	> 30	> 30	> 30	> 30	> 10	> 30	> 30	–	–
NS(=O)(=O)c1ccc(N2CCCCS2(=O)=O)cc1	> 30	> 30	> 30	> 30	> 30	> 30	> 30	> 30	> 30	> 30	> 30	> 30	–	–
CCCCCCCC(=O)CC[C@@H]1[C@@H](C/C=C\CCCC(=O)O)[C@@H](O)C[C@H]1O [UNOPROSTONE]	> 30	> 30	> 30	> 30	> 30	> 30	> 30	> 30	> 30	> 30	> 30	> 30	–	–
CCN1C(=O)NC(c2ccccc2)C1=O (stereo not given) [ETHOTOIN]	> 30	> 30	> 30	> 30	> 30	> 30	> 30	> 30	> 30	> 30	> 30	> 30	–	–
Cc1ccc(S(=O)(=O)NC(=O)N[C@H]2[C@H]3CC[C@@](C)([C@H]2O)C3(C)C)cc1 [GLIBORNURIDE]	> 30	> 30	> 30	> 30	> 30	> 30	> 30	> 30	> 30	> 30	> 30	> 30	–	–
CC(=O)OCC1=C(C(=O)O)N2C(=O)[C@@H](NC(=O)CSc3ccncc3)[C@H]2SC1 [CEPHAPIRIN]	> 10	> 10	> 30	> 30	> 30	> 10	> 10	> 10	> 10	–	> 30	> 10	> 10	> 30
CC1=C(C(=O)O)N2C(=O)[C@@H](NC(=O)[C@H](N)C3=CCC=CC3)[C@H]2SC1 [CEPHRADINE]	> 30	> 10	> 30	> 30	> 30	> 30	> 30	> 30	> 30	> 30	> 30	> 30	–	–
CCOC(=O)O[C@]1(C(=O)COC(=O)CC)CC[C@H]2[C@@H]3CCC4=CC(=O)C=C[C@]4(C)[C@H]3[C@@H](O)C[C@@]21C [PREDNICARBATE]	> 10	> 10	> 30	0.017	> 30	> 10	> 10	> 10	> 10	–	> 30	> 10	> 10	> 30
CC(=O)OCC(=O)[C@@]1(O)CC[C@H]2[C@@H]3CCC4=CC(=O)CC[C@]4(C)[C@@]3(F)[C@@H](O)C[C@@]21C [FLUDROCORTISONE ACETATE]	> 30	> 30	–	–	> 30	–	–	> 30	–	> 30	> 30	–	–	–
CN(C)CCOC(=O)C(c1ccccc1)C1(O)CCCC1 (stereo not given) [CYCLOPENTOLATE]	> 10	> 10	0.04	> 10	> 30	> 10	> 30	> 30	> 10	–	> 30	> 30	> 10	> 30
CC(=O)OCC1=C(C(=O)O)N2C(=O)[C@@H](NC(=O)Cc3cccs3)[C@H]2SC1 [CEPHALOTHIN]	> 30	> 30	> 30	> 30	> 30	> 30	> 30	> 30	> 30	> 30	> 30	> 30	–	–
CCC(=O)[C@@]1(C)[C@H](C)C[C@H]2[C@@H]3CCC4=CC(=O)C=C[C@]4(C)[C@H]3[C@@H](O)C[C@@]21C [RIMEXOLONE]	> 10	> 10	> 30	0.01	> 30	> 10	> 10	> 10	> 10	–	> 30	> 10	6.91	> 30
CCC(NC(C)C)C(O)c1ccc(O)c(O)c1 (stereo not given) [ISOETHARINE]	> 30	> 30	> 30	–	> 30	> 30	> 30	19.6	> 30	–	> 30	> 30	> 30	> 30
COc1nc(C)nc(Cl)c1N=C1NCCN1 [MOXONIDINE]	> 30	> 30	–	> 30	> 30	–	> 30	> 30	–	> 30	> 30	–	–	–
